Measurements taken from publication PMC11795524, “Melanin-Binding-Based Discovery of Topically Instilled Carbonic Anhydrase Inhibitors for Targeted Delivery and Prolonged Action in the Eye” (Molecular Pharmaceutics, 2025).

Experiments:
[1] = tested on: albino rabbits (New Zealand White); experiment: IOP study in albino rabbits after single eye drop; format: in vivo, rabbit; details: single 25 μL eye drop; CAI 0.5 or 1.0%, dorzolamide 2%; n = 5
Experimental: Five 3–5 months old albino (New Zealand White, all females) and five 3–6 months old pigmented rabbits (Chinchilla Bastard, 1 male and 4 females) were purchased from Charles River Laboratories, UK and Germany, respectively. Prior to the experiments, the rabbits were habituated to handling, and the baseline values of IOP were measured. During the experiments, rabbits weighed 2.4–4.0 kg.
First, stock solutions of CAIs (250 mg/mL) in dimethyl sulfoxide (Sigma-Aldrich, Germany) were prepared. These stock solutions were diluted with PBS (pH 7.4) to obtain 1 mg/mL (0.1%) or 10 mg/mL (1%) solutions. Water-solubility of the compounds was enhanced with 2-hydroxypropyl-β-cyclodextrin (Sigma-Aldrich, Germany) (Table 1).
The CAI solutions were tested in albino rabbits (eye drops of 0.1, and 0.5 or 1.0%) and in pigmented rabbits (0.5 or 1.0%). The novel CAI concentrations in solutions were determined based on the drug solubility with the aim to load the highest possible drug concentration to the single eye drop.
The IOP levels in the rabbits were measured with a tonometer (Tonometer Pro, Icare Finland Ltd.). After baseline IOP measurements, a single eye drop (25 μL) was applied to the left eye, whereas the right eye was not treated. After eye drop instillation, the eyelids were kept open manually for 1 min. The IOP was measured from both eyes of the rabbits at 0.5, 1, 2, 3, 4, 5, 6, 7, and 8 h after eye drop instillation. In the case of the pigmented rabbits, the measurements were continued until 10 h postinstillation, and further until the IOP had returned to the normal baseline.
The CAIs were tested in the same rabbits to minimize interindividual data variation. Washout periods of at least 3 days were used between instillation of different compounds. The experiments started always at 8 a.m. to eliminate bias due to diurnal IOP fluctuation. At each time point, the pressure was measured three times with the same eye, and the average values were calculated and used in data analysis.

[2] = Ocular pharmacokinetics in albino rats (iris-ciliary body, 3H-A01); format: in vivo, rat
Description: Eight albino rats (RccHan/Wist) and 18 pigmented rats (HsdOla/LH) were obtained from Envigo Laboratories B.V. (The Netherlands) and were used in pharmacokinetic experiments. Additional 13 albino and 13 pigmented rats were used in generation of the analytical standards. Young adult (3–4 months; 340–445 g) rats were used.
To conduct the pharmacokinetic study, bromo-containing CAI A15 (molecular structure presented in Table 1) was conveniently converted into [^3H]-A01 through catalytic dehalogenation in tritium gas. A15 (3.05 mg, 8.2 μmol) was dissolved in dimethylformamide (0.3 mL) and exposed to 99 mbar of tritium gas in a tritium manifold system for 1.5 h in the presence of 10% palladium on carbon (0.57 mg). Following filtration, the reaction mixture underwent double lyophilization with 1 mL ethanol to eliminate labile tritium. […] The crude material was purified via high-performance liquid chromatography, employing a Reprosil-Pur C18-HD column (250 × 10 mm, 5 μm), with a mobile phase comprising 40% acetonitrile in 50 mM ammonium hydrogen carbonate. Purified fractions were subsequently combined, subjected to solid-phase extraction, and eluted with ethanol. Radiochemical analysis indicated a purity exceeding 97%, with a molar activity of 0.29 TBq/mmol (7.9 Ci/mmol) and a total activity of 850 MBq (23 mCi). The solution of 1% A01 (10 mg/mL) was prepared similarly as in the IOP study (see Table 1) except that the solution contained also 72 μg/mL of [^3H]–A01 (specific activity 27.21 mCi/mg). The solution was prepared freshly for each experiment.
Seven μL of A01 solution (10 mg/mL including 72 μg/mL of ^3H–A01) was topically applied to both eyes of albino and pigmented rats. Rats were euthanized with carbon dioxide and cervical dislocation. The eyes (n = 4) of albino rats were collected 0.5, 2, 4, and 7 h after treatment. The eyes of pigmented rats were dissected 0.5, 2, 4, 7, 24, 48, 72, 144, and 240 h after eye drop instillation. The eyes were enucleated and dissected immediately after euthanasia. Iris-ciliary body was dissected, snap frozen on dry ice, and stored at −80 °C until analysis. The analyses were conducted within 24 h from tissue dissection.
Bound and unbound radioactivity of tritiated A01 was determined from dissected iris-ciliary body samples. First, the tissues were mechanically homogenized and diluted with 0.9% sodium chloride (weight ratio 35:1). Then, cellular unbound A01 was released from the iris-ciliary body cells by freezing and thawing the solutions three times with dry ice and a water bath (37 °C). Thereafter, the supernatant and pellet were separated by centrifuging the samples for 10 min at 13,000 rpm. The pellets were dissolved by using 60 min incubation in 100 μL of Solvable (PerkinElmer, Waltham, MA, USA). The samples were then bleached with 10 μL of hydrogen peroxide for 30 min. The pellet volume was calculated as the difference between the total and supernatant volumes.
After subtracting the background radioactivity, the measured net counts per minute (cpm) were converted to disintegrations per minute (dpm) taking into account color quenching and device efficiency. Standard curves were generated for each matrix (albino and pigmented supernatants and pellets; Appendix Figure 1). […] Signal to noise ratios of measured pellet and supernatant samples in liquid scintillation counting are shown in Appendix Table 3.

[3] = iris-ciliary body, single topical eye drop

concentration at 4 h ([2]; RccHan/Wist (albino), rat, topical, 7 µL of 10 mg/mL solution per eye, albino iris-ciliary body, 4 h, read-out: free concentration by 4 h): ~50 ng/g
tmax (bound drug) ([2]; albino eyes): 2 h
tmax(total drug) ([2]; albino eyes): 2 h
bound concentrations ([2]; albino iris-ciliary body): < 0.05 ng/mg
bound fraction ([2]; albino iris-ciliary body): below 10%
total concentration after decline ([2]; albino iris-ciliary body): ≈ 0.05 ng/mg
Cmax,unbound ([2]; albino iris-ciliary body, 2 h postdosing): 0.50 ng/mg
Cmax, total A01 concentration (bound + unbound) ([2]; albino iris-ciliary body, 2 h postdosing, 7 μL eye drop 10 mg/mL): 0.54 ng/mg
AUC0-last in albino tissues, bound A01 [2, 3]: 0.09 (ng/mg) × h
AUC0-last in albino tissues, total A01 [2, 3]: 1.37 (ng/mg) × h
AUC0-last in albino tissues, unbound A01 [2, 3]: 1.29 (ng/mg) × h
SMILES: C/C(=N\Nc1ccc(S(N)(=O)=O)cc1)c1cccnc1 [A01]
AUC0-last ± SD in albino rabbits (IOP decrease vs time) [1]: 19.95 ± 7.16 mmHg x h
